Broadly, the IC50 is the concentration that inhibits the measured activity by half.

From patent publication US9714236B2, “Compounds and methods for inhibiting JAK” (AstraZeneca AB, priority 2015, dated 2017) come the findings set out here.

Holding throughout (type): biochemical
Experiment [1] has as its target recombinant JAK2 (amino acids 831-1132) (Homo sapiens (Human), UniProt O60674). In words: Enzyme inhibition studies, JAK2 (peptide phosphorylation, Caliper LC3000). Conditions: ATP concentration of the tabulated values not stated (assayed at ATP Km 15 μM and at 5 mM). As for the experimental part: (§1) Enzyme inhibition studies were performed using recombinant JAK1 (amino acids 866-1154, Life Technologies, #PV4774, Carlsbad, Calif.), JAK2 (amino acids 831-1132), or JAK3 (amino acids 781-1124) under buffer conditions of 50 mM HEPES pH 7.3, 1 mM DTT, 0.01% Tween® 20, 50 μg/mL BSA, and 10 mM MgCl2. JAK enzyme was expressed as an N-terminal GST fusion in insect cells and purified by glutathione-affinity and size-exclusion chromatographies. […] Phosphorylated and unphosphorylated peptides were separated and quantified by a Caliper LC3000 system (Caliper Life Sciences, MA) for calculating percent inhibition.

Experiment [2] has as its target recombinant JAK1 (amino acids 866-1154) (Homo sapiens (Human), UniProt P23458). Put plainly: Enzyme inhibition studies, JAK1 (peptide phosphorylation, Caliper LC3000). The conditions noted are these: ATP concentration not given (assayed at ATP Km 55 μM and at 5 mM). The method, then: as §1
In experiment [3] the target is recombinant JAK3 (amino acids 781-1124) (Homo sapiens (Human), UniProt P52333). Put plainly: Enzyme inhibition studies, JAK3 (peptide phosphorylation, Caliper LC3000). The conditions noted are these: ATP concentration of the tabulated values not stated (assayed at ATP Km 3 μM and at 5 mM). As for the experimental part: as §1
Sequence of recombinant JAK3 (amino acids 781-1124) (P52333 781-1124): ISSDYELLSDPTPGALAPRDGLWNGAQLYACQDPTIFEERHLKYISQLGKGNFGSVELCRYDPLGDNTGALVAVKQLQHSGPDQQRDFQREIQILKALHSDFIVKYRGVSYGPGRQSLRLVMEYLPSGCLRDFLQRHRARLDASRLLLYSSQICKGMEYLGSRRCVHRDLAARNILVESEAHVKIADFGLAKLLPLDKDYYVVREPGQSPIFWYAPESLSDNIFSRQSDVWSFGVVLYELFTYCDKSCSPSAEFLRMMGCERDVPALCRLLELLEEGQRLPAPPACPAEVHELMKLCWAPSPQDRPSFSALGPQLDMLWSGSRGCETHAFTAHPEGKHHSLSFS

Sequence of recombinant JAK2 (amino acids 831-1132) (O60674 831-1132): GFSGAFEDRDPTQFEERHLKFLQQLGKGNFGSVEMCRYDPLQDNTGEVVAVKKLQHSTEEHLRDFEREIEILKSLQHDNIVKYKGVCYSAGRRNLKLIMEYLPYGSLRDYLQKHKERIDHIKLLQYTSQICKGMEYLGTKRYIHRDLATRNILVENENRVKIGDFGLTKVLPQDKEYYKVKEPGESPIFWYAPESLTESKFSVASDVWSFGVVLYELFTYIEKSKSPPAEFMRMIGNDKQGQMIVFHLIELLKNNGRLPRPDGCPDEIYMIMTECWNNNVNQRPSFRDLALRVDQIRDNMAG
Sequence of recombinant JAK1 (amino acids 866-1154) (P23458 866-1154): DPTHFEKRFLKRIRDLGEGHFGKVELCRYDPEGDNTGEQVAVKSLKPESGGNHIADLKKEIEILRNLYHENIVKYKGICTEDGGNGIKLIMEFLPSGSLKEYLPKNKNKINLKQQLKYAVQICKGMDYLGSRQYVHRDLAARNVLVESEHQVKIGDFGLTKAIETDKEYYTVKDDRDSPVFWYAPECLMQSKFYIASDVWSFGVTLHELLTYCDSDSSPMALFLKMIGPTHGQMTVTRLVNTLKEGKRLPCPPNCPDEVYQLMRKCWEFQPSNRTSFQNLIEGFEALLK

On to `COc1nn(C)cc1Nc1ncc(F)c(-c2c[nH]c3c(NC(=O)[C@@H](C)N4CCN(C)CC4)cccc23)n1` [Example 25, (2R)-N-(3-{5-Fluoro-2-[(3-methoxy-1-methyl-1H-pyrazol-4-yl)amino]pyrimidin-4-yl}-1H-indol-7-yl)-2-(4-methylpiperazin-1-yl)propanamide], for which the IC50 was 6.62 µM in experiment [1], 0.019 µM in experiment [2] and greater than 30 µM in experiment [3].
On to `COc1nn(C)cc1Nc1nccc(-c2c[nH]c3c(NC(=O)[C@@H](C)N4CCN(C)[C@@H](C)C4)cccc23)n1` [Example 26, (2R)-2-[(3S)-3,4-dimethylpiperazin-1-yl]-N-(3-{2-[(3-methoxy-1-methyl-1H-pyrazol-4-yl)amino]pyrimidin-4-yl}-1H-indol-7-yl)propanamide], for which the results for the IC50 in experiment [1], in experiment [2] and in experiment [3] were 16.7 µM, 0.069 µM and greater than 30 µM, respectively.
As for `COCCN1CCN([C@H](C)C(=O)Nc2cccc3c(-c4ccnc(Nc5cn(C)nc5OC)n4)c[nH]c23)CC1` [Example 27, (2R)-2-[4-(2-methoxyethyl)piperazin-1-yl]-N-(3-{2-[(3-methoxy-1-methyl-1H-pyrazol-4-yl)amino]pyrimidin-4-yl}-1H-indol-7-yl)propanamide], the results for the IC50 in experiment [1], in experiment [2] and in experiment [3] were greater than 30 µM, 0.575 µM and greater than 30 µM, respectively.
In the case of `CCN1CCN([C@H](C)C(=O)Nc2cccc3c(-c4ccnc(Nc5cn(C)nc5OC)n4)c[nH]c23)CC1` [Example 28], the IC50 in experiment [1] is 11.8 µM; in experiment [2] it was 0.106 µM; in experiment [3], greater than 30 µM.
Consider `COc1nn(C)cc1Nc1nccc(-c2c[nH]c3c(NC(=O)[C@@H](C)N4CCN(C)[C@H](C)C4)cccc23)n1` [Example 30, (2R)-2-[(3R)-3,4-dimethylpiperazin-1-yl]-N-(3-{2-[(3-methoxy-1-methyl-1H-pyrazol-4-yl)amino]pyrimidin-4-yl}-1H-indol-7-yl)propanamide], for which the values for the IC50 in experiment [1], in experiment [2] and in experiment [3] were greater than 30 µM, 0.304 µM and greater than 30 µM, respectively.
Take `CCOc1nn(C)cc1Nc1ncc(C)c(-c2c[nH]c3c(NC(=O)[C@@H](C)N4CCN(C)[C@@H](C)C4)cccc23)n1` [Example 31a, (2R)-2-[(3S)-3,4-dimethylpiperazin-1-yl]-N-(3-{2-[(3-ethoxy-1-methyl-1H-pyrazol-4-yl)amino]-5-methylpyrimidin-4-yl}-1H-indol-7-yl)propanamide]: the IC50 in experiment [1] was 19.8 µM; in experiment [2], 0.015 µM; in experiment [3] it was greater than 30 µM.
For `CCOc1nn(C)cc1Nc1ncc(C)c(-c2c[nH]c3c(NC(=O)[C@H](C)N4CCN(C)[C@@H](C)C4)cccc23)n1` [Example 31b, (2S)-2-[(3S)-3,4-dimethylpiperazin-1-yl]-N-(3-{2-[(3-ethoxy-1-methyl-1H-pyrazol-4-yl)amino]-5-methylpyrimidin-4-yl}-1H-indol-7-yl)propanamide], in that order: greater than 30 µM, 0.454 µM and greater than 30 µM.
For the compound `COc1nn(C)cc1Nc1ncc(C)c(-c2c[nH]c3c(NC(=O)[C@H](C)N4CCN(C)CC4)cccc23)n1` [Example 33, (2S)-N-(3-{2-[(3-methoxy-1-methyl-1H-pyrazol-4-yl)amino]-5-methylpyrimidin-4-yl}-1H-indol-7-yl)-2-(4-methylpiperazin-1-yl)propanamide], the results for the IC50 in experiment [1], in experiment [2] and in experiment [3] were greater than 30 µM, 0.272 µM and greater than 30 µM, respectively.
Regarding `COc1nn(C)cc1Nc1ncc(C)c(-c2c[nH]c3c(NC(=O)[C@@H](C)N4CCN(C)CC4)cccc23)n1` [Example 34, (2R)-N-(3-{2-[(3-Methoxy-1-methyl-1H-pyrazol-4-yl)amino]-5-methylpyrimidin-4-yl}-1H-indol-7-yl)-2-(4-methylpiperazin-1-yl)propanamide], the IC50 was 5.37 µM in experiment [1], 0.01 µM in experiment [2] and greater than 30 µM in experiment [3].
For `CCOc1nn(C)cc1Nc1ncc(C)c(-c2c[nH]c3c(NC(=O)[C@@H](C)N4CCN(C)CC4)cccc23)n1` [Example 35, (2R)-N-(3-{2-[(3-ethoxy-1-methyl-1H-pyrazol-4-yl)amino]-5-methylpyrimidin-4-yl}-1H-indol-7-yl)-2-(4-methylpiperazin-1-yl)propanamide], in that order: 17 µM, 0.02 µM and greater than 30 µM.
With `COc1nn(C)cc1Nc1ncc(Cl)c(-c2c[nH]c3c(NC(=O)[C@@H](C)N4CCN(C)CC4)cccc23)n1` [Example 36, (2R)-N-(3-{5-chloro-2-[(3-methoxy-1-methyl-1H-pyrazol-4-yl)amino]pyrimidin-4-yl}-1H-indol-7-yl)-2-(4-methylpiperazin-1-yl)propanamide], the IC50 was 1.76 µM in experiment [1], 0.007 µM in experiment [2] and 19.1 µM in experiment [3].
For `COc1nn(C)cc1Nc1ncc(Br)c(-c2c[nH]c3c(NC(=O)[C@@H](C)N4CCN(C)CC4)cccc23)n1` [Example 37, (2R)-N-(3-{5-bromo-2-[(3-methoxy-1-methyl-1H-pyrazol-4-yl)amino]pyrimidin-4-yl}-1H-indol-7-yl)-2-(4-methylpiperazin-1-yl)propanamide], in that order: 1.58 µM, 0.008 µM and 15.4 µM.
As for `COc1nn(C)cc1Nc1ncc(C)c(-c2c[nH]c3c(NC(=O)[C@@H](C)N4CCN(C)C[C@H]4C)cccc23)n1` [Example 38, (2R)-2-[(2R)-2,4-dimethylpiperazin-1-yl]-N-(3-{2-[(3-methoxy-1-methyl-1H-pyrazol-4-yl)amino]-5-methylpyrimidin-4-yl}-1H-indol-7-yl)propanamide], the IC50 in experiment [1] is 6.48 µM; in experiment [2], 0.013 µM; in experiment [3], greater than 30 µM.
Consider `CCOc1nn(C)cc1Nc1ncc(F)c(-c2c[nH]c3c(NC(=O)[C@@H](C)N4CCN(C)CC4)cccc23)n1` [Example 39, (2R)-N-(3-{2-[(3-ethoxy-1-methyl-1H-pyrazol-4-yl)amino]-5-fluoropyrimidin-4-yl}-1H-indol-7-yl)-2-(4-methylpiperazin-1-yl)propanamide], for which the IC50 in experiment [1] is 25.5 µM; in experiment [2], 0.055 µM; in experiment [3], greater than 30 µM.
`CCOc1nn(C)cc1Nc1ncc(Cl)c(-c2c[nH]c3c(NC(=O)[C@@H](C)N4CCN(C)CC4)cccc23)n1` [Example 40, (2R)-N-(3-{5-chloro-2-[(3-ethoxy-1-methyl-1H-pyrazol-4-yl)amino]pyrimidin-4-yl}-1H-indol-7-yl)-2-(4-methylpiperazin-1-yl)propanamide]: the values for the IC50 in experiment [1], in experiment [2] and in experiment [3] were 8.93 µM, 0.024 µM and greater than 30 µM, respectively.
In the case of `Cc1cnc(Nc2cn(C)nc2C)nc1-c1c[nH]c2c(NC(=O)[C@@H](C)N3CCN(C)CC3)cccc12` [Example 41, (2R)-N-(3-{2-[(1,3-dimethyl-1H-pyrazol-4-yl)amino]-5-methylpyrimidin-4-yl}-1H-indol-7-yl)-2-(4-methylpiperazin-1-yl)propanamide], the figures for the IC50 in experiment [1], in experiment [2] and in experiment [3] were 2.58 µM, less than 0.005 µM and greater than 30 µM, respectively.
As to `Cc1cnc(Nc2cn(C)nc2C)nc1-c1c[nH]c2c(NC(=O)[C@H](C)N3CCN(C)CC3)cccc12` [Example 42, (2S)-N-(3-{2-[(1,3-dimethyl-1H-pyrazol-4-yl)amino]-5-methylpyrimidin-4-yl}-1H-indol-7-yl)-2-(4-methylpiperazin-1-yl)propanamide], the IC50 is 21.1 µM in experiment [1], 0.106 µM in experiment [2] and greater than 30 µM in experiment [3].
For `CC[C@@H](C(=O)Nc1cccc2c(-c3nc(Nc4cn(C)nc4OC)ncc3C)c[nH]c12)N1CCN(C)CC1` [Example 43, (2S)-N-(3-{2-[(3-Methoxy-1-methyl-1H-pyrazol-4-yl)amino]-5-methylpyrimidin-4-yl}-1H-indol-7-yl)-2-(4-methylpiperazin-1-yl)butanamide], in that order: 21.1 µM, 0.079 µM and greater than 30 µM.
For `CC[C@H](C(=O)Nc1cccc2c(-c3nc(Nc4cn(C)nc4OC)ncc3C)c[nH]c12)N1CCN(C)CC1` [Example 44, (2R)-N-(3-{2-[(3-Methoxy-1-methyl-1H-pyrazol-4-yl)amino]-5-methylpyrimidin-4-yl}-1H-indol-7-yl)-2-(4-methylpiperazin-1-yl)butanamide], in that order: 1.95 µM, less than 0.004 µM and greater than 30 µM.
For `COC[C@H](C(=O)Nc1cccc2c(-c3nc(Nc4cn(C)nc4OC)ncc3C)c[nH]c12)N1CCN(C)CC1` [Example 45, (2R)-3-methoxy-N-(3-{2-[(3-methoxy-1-methyl-1H-pyrazol-4-yl)amino]-5-methylpyrimidin-4-yl}-1H-indol-7-yl)-2-(4-methylpiperazin-1-yl)propanamide], in that order: 0.79 µM, less than 0.003 µM and greater than 30 µM.
Take `COC[C@@H](C(=O)Nc1cccc2c(-c3nc(Nc4cn(C)nc4OC)ncc3C)c[nH]c12)N1CCN(C)CC1` [Example 46, (2S)-3-methoxy-N-(3-{2-[(3-methoxy-1-methyl-1H-pyrazol-4-yl)amino]-5-methylpyrimidin-4-yl}-1H-indol-7-yl)-2-(4-methylpiperazin-1-yl)propanamide]: the half-inhibitory concentration (IC50) is greater than 30 µM in experiment [1], 0.986 µM in experiment [2] and greater than 30 µM in experiment [3].
